Assay results from ChEMBL document CHEMBL5360669, “Novel Pyrazoloquinoline Compounds as KRAS Inhibitors for Treating Cancer” (ACS Med Chem Lett, 2023).

How the values were obtained:
GTPase KRas [1] = molecular target: T1, GTPase KRas (Homo sapiens, UniProt P01116, G12C); assay: Inhibition of KRAS G12C mutant (unknown origin) by measuring exchange of bodipy-GDP for GppNHp incubated for 2 hrs
GTPase KRas [2] = molecular target: T1, GTPase KRas; assay: Inhibition of KRAS G12C mutant (unknown origin) incubated for 2 hrs
[3] = Inhibition of KRAS G12C WB mutant (unknown origin) incubated for 2 hrs; parameters: species or system Homo sapiens

Measured: IC50

T1 sequence (P01116 whole entry G12C): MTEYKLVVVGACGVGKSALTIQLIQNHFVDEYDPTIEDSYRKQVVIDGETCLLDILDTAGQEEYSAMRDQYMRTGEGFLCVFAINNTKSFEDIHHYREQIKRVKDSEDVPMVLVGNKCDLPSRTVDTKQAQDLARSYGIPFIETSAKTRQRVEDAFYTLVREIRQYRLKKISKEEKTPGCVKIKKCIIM

C=C(F)C(=O)N1CC[C@H](n2ncc3c(N4CC(N(C)CC)C4)nc4c(F)c(-c5c(C)c(C)cc6[nH]ncc56)c(Cl)cc4c32)C[C@H]1CC#N
≤ 100 nM: all assays above

C=C(F)C(=O)N1CC[C@H](n2ncc3c(O[C@@H](C)[C@@H]4CCCN4C)nc4c(F)c(-c5nccc6cccc(C#N)c56)c(Cl)cc4c32)C[C@H]1CC#N
≤ 100 nM: all assays above

CC#CC(=O)N1CC[C@H](n2ncc3c(O[C@@H](C)[C@@H]4CCCN4C)nc4c(F)c(-c5cccc6cccc(C#N)c56)c(C)cc4c32)C[C@H]1CC#N
≤ 100 nM: all assays above

CC#CC(=O)N1CC[C@H](n2ncc3c(O[C@@H](C)[C@@H]4CCCN4C)nc4c(F)c(-c5nccc6cccc(C#N)c56)c(Cl)cc4c32)C[C@H]1CC#N
≤ 100 nM: all assays above

COC/C=C/C(=O)N1CC[C@H](n2ncc3c(O[C@@H](C)[C@@H]4CCCN4C)nc4c(F)c(-c5nccc6cccc(C#N)c56)c(Cl)cc4c32)C[C@H]1CC#N
≤ 100 nM: all assays above

COC/C=C/C(=O)N1CC[C@H](n2ncc3c(O[C@@H](C)[C@@H]4CCCN4C)nc4c(F)c(-c5cccc6cccc(C#N)c56)c(Cl)cc4c32)C[C@H]1CC#N
≤ 100 nM: all assays above
